According to ChEMBL document CHEMBL3813632, “Thiazolo[3,2-a]benzimidazol-3(2H)-one derivatives: Structure-activity relationships of selective nucleotide pyrophosphatase/phosphodiesterase1 (NPP1) inhibitors” (Bioorg Med Chem, 2016):
Active and inactive are the calls of the source. No cut-off for these calls is given here.

Experiments:
[1] = molecular target: T1, Ectonucleoside triphosphate diphosphohydrolase 1 (Homo sapiens) (UniProt P49961); experiment: Inhibition of human recombinant soluble NTPDase1 expressed in CHO cells using ATP as substrate at 10 to 1000 uM preincubated with substrate followed by protein addition and subsequent incubation for 30 mins by capillary electrophoresis
T1 sequence (whole entry): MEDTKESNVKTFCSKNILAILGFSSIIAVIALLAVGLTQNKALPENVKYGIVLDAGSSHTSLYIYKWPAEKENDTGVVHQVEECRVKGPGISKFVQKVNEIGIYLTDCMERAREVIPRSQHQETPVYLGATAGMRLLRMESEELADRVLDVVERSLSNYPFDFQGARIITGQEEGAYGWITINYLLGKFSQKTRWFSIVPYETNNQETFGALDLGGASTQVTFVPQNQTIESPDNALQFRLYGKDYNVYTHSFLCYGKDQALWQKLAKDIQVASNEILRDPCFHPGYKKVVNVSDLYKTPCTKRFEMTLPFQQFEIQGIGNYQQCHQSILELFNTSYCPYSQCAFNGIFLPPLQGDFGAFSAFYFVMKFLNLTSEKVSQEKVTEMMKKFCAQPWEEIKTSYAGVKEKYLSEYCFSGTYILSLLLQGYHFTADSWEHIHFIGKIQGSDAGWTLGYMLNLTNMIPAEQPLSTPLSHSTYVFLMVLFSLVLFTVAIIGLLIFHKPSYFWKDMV

[2] = molecular target: T2, Ectonucleoside triphosphate diphosphohydrolase 3 (Homo sapiens) (UniProt O75355); experiment: Inhibition of human recombinant NTPDase3 expressed in NS0 cells using ATP as substrate at 10 to 1000 uM preincubated with substrate followed by protein addition and subsequent incubation for 30 mins by capillary electrophoresis
T2 sequence (whole entry): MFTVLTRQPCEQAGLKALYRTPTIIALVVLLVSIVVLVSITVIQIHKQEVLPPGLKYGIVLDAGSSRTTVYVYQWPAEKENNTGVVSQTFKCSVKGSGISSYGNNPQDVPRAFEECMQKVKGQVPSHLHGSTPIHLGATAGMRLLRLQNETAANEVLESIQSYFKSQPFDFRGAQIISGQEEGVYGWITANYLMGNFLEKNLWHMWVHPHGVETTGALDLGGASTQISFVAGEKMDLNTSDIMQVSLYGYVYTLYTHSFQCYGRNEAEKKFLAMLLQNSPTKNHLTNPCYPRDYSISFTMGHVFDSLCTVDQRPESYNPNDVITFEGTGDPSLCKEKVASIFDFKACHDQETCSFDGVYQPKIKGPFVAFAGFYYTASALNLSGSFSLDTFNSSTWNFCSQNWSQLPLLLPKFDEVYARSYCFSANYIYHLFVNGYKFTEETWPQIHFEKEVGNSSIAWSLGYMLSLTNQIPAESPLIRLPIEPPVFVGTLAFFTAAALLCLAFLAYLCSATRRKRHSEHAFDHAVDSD

[3] = molecular target: T3, Alkaline phosphatase, tissue-nonspecific isozyme (Homo sapiens) (UniProt P05186); experiment: Inhibition of human recombinant TNAP expressed in NS0 cells using p-nitrophenyl phosphate as substrate at 10 to 1000 uM preincubated with substrate followed by protein addition and subsequent incubation for 30 mins by colorimetric analysis
T3 sequence (whole entry): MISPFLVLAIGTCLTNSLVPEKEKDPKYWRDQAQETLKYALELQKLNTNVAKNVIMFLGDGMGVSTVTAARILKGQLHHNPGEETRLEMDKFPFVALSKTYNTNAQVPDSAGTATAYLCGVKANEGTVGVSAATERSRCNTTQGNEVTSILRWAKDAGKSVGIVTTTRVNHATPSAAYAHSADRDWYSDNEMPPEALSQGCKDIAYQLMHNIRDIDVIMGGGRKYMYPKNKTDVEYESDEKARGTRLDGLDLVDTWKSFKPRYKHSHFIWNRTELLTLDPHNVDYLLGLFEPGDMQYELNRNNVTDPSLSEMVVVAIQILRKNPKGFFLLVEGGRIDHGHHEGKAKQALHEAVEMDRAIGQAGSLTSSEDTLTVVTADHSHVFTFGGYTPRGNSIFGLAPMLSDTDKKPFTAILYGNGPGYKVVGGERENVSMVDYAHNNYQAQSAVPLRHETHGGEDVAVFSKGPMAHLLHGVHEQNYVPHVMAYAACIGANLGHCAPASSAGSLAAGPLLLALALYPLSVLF

[4] = Chemical stability of the compound assessed as compound remaining at pH 9 at 37 degC after 8 hrs by HPLC-MS analysis; format: physicochemical; settings: buffer, read-out: Stability
[5] = Chemical stability of the compound at pH 9 at 25 degC after 8 hrs by HPLC-MS analysis; format: physicochemical; settings: buffer, pH 9, 8 h
[6] = Chemical stability of the compound assessed as compound remaining at pH 9 at 37 degC after 24 hrs by HPLC-MS analysis; format: physicochemical; settings: buffer, read-out: Stability
[7] = Chemical stability of the compound assessed as compound remaining at pH 7.4 at 25 to 37 degC after 8 to 24 hrs by HPLC-MS analysis; format: physicochemical; settings: buffer
[8] = Drug metabolism of the compound in MgCl2/CaCl2/CHES buffer assessed as 2-hydroxy-3-(5-iodofuran-2-yl)-1-(2-thioxo-2,3-dihydro-1H-benzo[d]imidazol-1-yl)prop-2-en-1-one metabolite formation at pH 9 after 24 hrs by LC-MS analysis; format: physicochemical; settings: pH 9, 24 h
[9] = Retention time of the compound in MgCl2/CaCl2/CHES buffer at pH 9 by LC-MS analysis; format: physicochemical
[10] = species: Homo sapiens; experiment: Selectivity ratio of Ki for human recombinant soluble NTPDase2 to Ki for human recombinant NPP1
[11] = species: Homo sapiens; experiment: Selectivity ratio of Ki for human recombinant soluble NTPDase3 to Ki for human recombinant NPP1
[12] = species: Homo sapiens; experiment: Selectivity ratio of Ki for human recombinant NPP2 to Ki for human recombinant NPP1
[13] = species: Homo sapiens; experiment: Selectivity ratio of Ki for human recombinant NPP3 to Ki for human recombinant NPP1
[14] = species: Homo sapiens; experiment: Selectivity ratio of Ki for human recombinant Ecto-5'-nucleotidase to Ki for human recombinant NPP1
[15] = species: Homo sapiens; experiment: Selectivity ratio of Ki for human recombinant TNAP to Ki for human recombinant NPP1

Q: What does the source list for `O=c1/c(=C/c2ccc(I)o2)sc2nc3ccccc3n12`?
A: inhibition [1]: inactive; inhibition [2]: inactive; inhibition [3]: inactive; remaining at 8 h [4]: 70.5%; Stability [5]: Stable; remaining at 24 h [6]: 27.4%; Stability [7]: Stable; Drug metabolism [8]: metabolite_detected; Retention_time [9]: 8.2 min; Ratio Ki [10]: 1000; Ratio Ki [11]: 1000; Ratio Ki [12]: 1000; Ratio Ki [13]: 1000; Ratio Ki [14]: 1000; Ratio Ki [15]: 1000
